Results reported in article PMC4767141, “Discovery of Potent, Orally Bioavailable, Small-Molecule Inhibitors of WNT Signaling from a Cell-Based Pathway Screen” (Journal of Medicinal Chemistry, 2015).
Several values for one entry are separate records, joined by “and”; a condition that tells them apart may be missing. Identical values can stand only once.

Assays:
[1] = molecular target: T1, AT1 (h) (Homo sapiens, UniProt P30556); experiment: CEREP binding panel; settings: antagonist radioligand, read-out: % Inhibition of Control Specific Binding
T1 construct: purchased Millipore KinaseProfiler (kinases); Cerep (receptors and ion channels)

[2] = molecular target: T2, CCK1 (CCKA) (h) (Homo sapiens, UniProt P32238); experiment: CEREP binding panel; settings: agonist radioligand, read-out: % Inhibition of Control Specific Binding
T2 construct: purchased Millipore KinaseProfiler (kinases); Cerep (receptors and ion channels)

[3] = molecular target: T3, H1 (h) (Homo sapiens, UniProt P35367); experiment: CEREP binding panel; settings: antagonist radioligand, read-out: % Inhibition of Control Specific Binding
T3 construct: purchased Millipore KinaseProfiler (kinases); Cerep (receptors and ion channels)

[4] = molecular target: T4, MC4 (h) (Homo sapiens, UniProt P32245); experiment: CEREP binding panel; settings: agonist radioligand, read-out: % Inhibition of Control Specific Binding
T4 construct: purchased Millipore KinaseProfiler (kinases); Cerep (receptors and ion channels)

[5] = molecular target: T5, δ2 (DOP) (h) (Homo sapiens, UniProt P41143); experiment: CEREP binding panel; settings: 10 μM, agonist radioligand
T5 construct: purchased Millipore KinaseProfiler (kinases); Cerep (receptors and ion channels)

[6] = molecular target: T6, κ (KOP) (Rattus norvegicus, UniProt P34975); experiment: CEREP binding panel; settings: 10 μM, agonist radioligand
T6 construct: purchased Millipore KinaseProfiler (kinases); Cerep (receptors and ion channels)

[7] = molecular target: T7, 5-HT1A (h) (Homo sapiens, UniProt P08908); experiment: CEREP binding panel; settings: agonist radioligand, read-out: % Inhibition of Control Specific Binding
T7 construct: purchased Millipore KinaseProfiler (kinases); Cerep (receptors and ion channels)

[8] = molecular target: T8, 5-HT6 (h) (Homo sapiens, UniProt P50406); experiment: CEREP binding panel; settings: agonist radioligand, read-out: % Inhibition of Control Specific Binding
T8 construct: purchased Millipore KinaseProfiler (kinases); Cerep (receptors and ion channels)

[9] = system: Ca2+ channel (L, verapamil site) (phenylalkylamine); experiment: CEREP binding panel; settings: 10 μM, antagonist radioligand
[10] = system: KV channel; experiment: CEREP binding panel; settings: 10 μM, antagonist radioligand
[11] = molecular target: T9, 5-HT transporter (h) (Homo sapiens, UniProt P31645); experiment: CEREP binding panel; settings: antagonist radioligand, read-out: % Inhibition of Control Specific Binding
T9 construct: purchased Millipore KinaseProfiler (kinases); Cerep (receptors and ion channels)

[12] = molecular target: T10, ABL (Homo sapiens, UniProt P00519); experiment: Millipore kinase panel; type: biochemical; settings: read-out: % Control
T10 construct: purchased Millipore KinaseProfiler (kinases); Cerep (receptors and ion channels)

[13] = system: BLK; experiment: Millipore kinase panel; type: biochemical; settings: 1 μM, ATP at Km
[14] = molecular target: T11, BTK (Homo sapiens, UniProt Q06187); experiment: Millipore kinase panel; type: biochemical; settings: read-out: % Control
T11 construct: purchased Millipore KinaseProfiler (kinases); Cerep (receptors and ion channels)

[15] = molecular target: T12, CAMKIV (Homo sapiens, UniProt Q16566); experiment: Millipore kinase panel; type: biochemical; settings: read-out: % Control
T12 construct: purchased Millipore KinaseProfiler (kinases); Cerep (receptors and ion channels)

[16] = molecular target: T13, CDK2/CYCLINA (Homo sapiens, UniProt P24941); experiment: Millipore kinase panel; type: biochemical; settings: read-out: % Control
T13 construct: purchased Millipore KinaseProfiler (kinases); Cerep (receptors and ion channels)

[17] = molecular target: T14, CDK5/P25 (Homo sapiens, UniProt Q00535); experiment: Millipore kinase panel; type: biochemical; settings: read-out: % Control
T14 construct: purchased Millipore KinaseProfiler (kinases); Cerep (receptors and ion channels)

[18] = molecular target: T15, CSK (Homo sapiens, UniProt P41240); experiment: Millipore kinase panel; type: biochemical; settings: read-out: % Control
T15 construct: purchased Millipore KinaseProfiler (kinases); Cerep (receptors and ion channels)

[19] = molecular target: T16, DMPK (Homo sapiens, UniProt Q09013); experiment: Millipore kinase panel; type: biochemical; settings: read-out: % Control
T16 construct: purchased Millipore KinaseProfiler (kinases); Cerep (receptors and ion channels)

[20] = molecular target: T17, EPHA3 (Homo sapiens, UniProt P29320); experiment: Millipore kinase panel; type: biochemical; settings: read-out: % Control
T17 construct: purchased Millipore KinaseProfiler (kinases); Cerep (receptors and ion channels)

[21] = molecular target: T18, EPHA5 (Homo sapiens, UniProt P54756); experiment: Millipore kinase panel; type: biochemical; settings: read-out: % Control
T18 construct: purchased Millipore KinaseProfiler (kinases); Cerep (receptors and ion channels)

[22] = molecular target: T19, FER (Homo sapiens, UniProt P16591); experiment: Millipore kinase panel; type: biochemical; settings: read-out: % Control
T19 construct: purchased Millipore KinaseProfiler (kinases); Cerep (receptors and ion channels)

[23] = molecular target: T20, FGFR4 (Homo sapiens, UniProt P22455); experiment: Millipore kinase panel; type: biochemical; settings: read-out: % Control
T20 construct: purchased Millipore KinaseProfiler (kinases); Cerep (receptors and ion channels)

[24] = molecular target: T21, IRAK1 (Homo sapiens, UniProt P51617); experiment: Millipore kinase panel; type: biochemical; settings: read-out: % Control
T21 construct: purchased Millipore KinaseProfiler (kinases); Cerep (receptors and ion channels)

[25] = molecular target: T22, JAK3 (Homo sapiens, UniProt P52333); experiment: Millipore kinase panel; type: biochemical; settings: read-out: % Control
T22 construct: purchased Millipore KinaseProfiler (kinases); Cerep (receptors and ion channels)

[26] = molecular target: T23, JNK2ALPHA2 (Homo sapiens, UniProt P45984); experiment: Millipore kinase panel; type: biochemical; settings: read-out: % Control
T23 construct: purchased Millipore KinaseProfiler (kinases); Cerep (receptors and ion channels)

[27] = molecular target: T24, CKIT (Homo sapiens, UniProt P10721); experiment: Millipore kinase panel; type: biochemical; settings: read-out: % Control
T24 construct: purchased Millipore KinaseProfiler (kinases); Cerep (receptors and ion channels)

[28] = molecular target: T25, MAPK1 (Homo sapiens, UniProt P27361); experiment: Millipore kinase panel; type: biochemical; settings: read-out: % Control
T25 construct: purchased Millipore KinaseProfiler (kinases); Cerep (receptors and ion channels)

[29] = molecular target: T26, MINK (Homo sapiens, UniProt Q8N4C8); experiment: Millipore kinase panel; type: biochemical; settings: read-out: % Control
T26 construct: purchased Millipore KinaseProfiler (kinases); Cerep (receptors and ion channels)

[30] = molecular target: T27, MSK2 (Homo sapiens, UniProt O75676); experiment: Millipore kinase panel; type: biochemical; settings: read-out: % Control
T27 construct: purchased Millipore KinaseProfiler (kinases); Cerep (receptors and ion channels)

[31] = molecular target: T28, MSSK1 (Homo sapiens, UniProt Q9UPE1); experiment: Millipore kinase panel; type: biochemical; settings: read-out: % Control
T28 construct: purchased Millipore KinaseProfiler (kinases); Cerep (receptors and ion channels)

[32] = molecular target: T29, MUSK (Homo sapiens, UniProt O15146); experiment: Millipore kinase panel; type: biochemical; settings: read-out: % Control
T29 construct: purchased Millipore KinaseProfiler (kinases); Cerep (receptors and ion channels)

[33] = molecular target: T30, PAK2 (Homo sapiens, UniProt Q13177); experiment: Millipore kinase panel; type: biochemical; settings: read-out: % Control
T30 construct: purchased Millipore KinaseProfiler (kinases); Cerep (receptors and ion channels)

[34] = molecular target: T31, PIM-1 (Homo sapiens, UniProt P11309); experiment: Millipore kinase panel; type: biochemical; settings: read-out: % Control
T31 construct: purchased Millipore KinaseProfiler (kinases); Cerep (receptors and ion channels)

[35] = molecular target: T32, PLK3 (Homo sapiens, UniProt Q9H4B4); experiment: Millipore kinase panel; type: biochemical; settings: read-out: % Control
T32 construct: purchased Millipore KinaseProfiler (kinases); Cerep (receptors and ion channels)

[36] = molecular target: T33, PRKX (Homo sapiens, UniProt P51817); experiment: Millipore kinase panel; type: biochemical; settings: read-out: % Control
T33 construct: purchased Millipore KinaseProfiler (kinases); Cerep (receptors and ion channels)

[37] = molecular target: T34, SAPK2A (Homo sapiens, UniProt Q16539); experiment: Millipore kinase panel; type: biochemical; settings: read-out: % Control
T34 construct: purchased Millipore KinaseProfiler (kinases); Cerep (receptors and ion channels)

[38] = molecular target: T35, SRPK1 (Homo sapiens, UniProt Q96SB4); experiment: Millipore kinase panel; type: biochemical; settings: read-out: % Control
T35 construct: purchased Millipore KinaseProfiler (kinases); Cerep (receptors and ion channels)

[39] = molecular target: T36, ZAP-70 (Homo sapiens, UniProt P43403); experiment: Millipore kinase panel; type: biochemical; settings: read-out: % Control
T36 construct: purchased Millipore KinaseProfiler (kinases); Cerep (receptors and ion channels)

[40] = molecular target: T37, FAK (Homo sapiens, UniProt Q05397); experiment: Millipore kinase panel; type: biochemical; settings: read-out: % Control
T37 construct: purchased Millipore KinaseProfiler (kinases); Cerep (receptors and ion channels)

[41] = molecular target: T38, HASPIN (Homo sapiens, UniProt Q8TF76); experiment: Millipore kinase panel; type: biochemical; settings: read-out: % Control
T38 construct: purchased Millipore KinaseProfiler (kinases); Cerep (receptors and ion channels)

[42] = molecular target: T39, TXK (Homo sapiens, UniProt P42681); experiment: Millipore kinase panel; type: biochemical; settings: read-out: % Control
T39 construct: purchased Millipore KinaseProfiler (kinases); Cerep (receptors and ion channels)

[43] = molecular target: T40, TEC ACTIVATED (Homo sapiens, UniProt P42680); experiment: Millipore kinase panel; type: biochemical; settings: read-out: % Control
T40 construct: purchased Millipore KinaseProfiler (kinases); Cerep (receptors and ion channels)

[44] = molecular target: T41, IR, ACTIVATED (Homo sapiens, UniProt P06213); experiment: Millipore kinase panel; type: biochemical; settings: read-out: % Control
T41 construct: purchased Millipore KinaseProfiler (kinases); Cerep (receptors and ion channels)

T38 sequence (Q8TF76 whole entry): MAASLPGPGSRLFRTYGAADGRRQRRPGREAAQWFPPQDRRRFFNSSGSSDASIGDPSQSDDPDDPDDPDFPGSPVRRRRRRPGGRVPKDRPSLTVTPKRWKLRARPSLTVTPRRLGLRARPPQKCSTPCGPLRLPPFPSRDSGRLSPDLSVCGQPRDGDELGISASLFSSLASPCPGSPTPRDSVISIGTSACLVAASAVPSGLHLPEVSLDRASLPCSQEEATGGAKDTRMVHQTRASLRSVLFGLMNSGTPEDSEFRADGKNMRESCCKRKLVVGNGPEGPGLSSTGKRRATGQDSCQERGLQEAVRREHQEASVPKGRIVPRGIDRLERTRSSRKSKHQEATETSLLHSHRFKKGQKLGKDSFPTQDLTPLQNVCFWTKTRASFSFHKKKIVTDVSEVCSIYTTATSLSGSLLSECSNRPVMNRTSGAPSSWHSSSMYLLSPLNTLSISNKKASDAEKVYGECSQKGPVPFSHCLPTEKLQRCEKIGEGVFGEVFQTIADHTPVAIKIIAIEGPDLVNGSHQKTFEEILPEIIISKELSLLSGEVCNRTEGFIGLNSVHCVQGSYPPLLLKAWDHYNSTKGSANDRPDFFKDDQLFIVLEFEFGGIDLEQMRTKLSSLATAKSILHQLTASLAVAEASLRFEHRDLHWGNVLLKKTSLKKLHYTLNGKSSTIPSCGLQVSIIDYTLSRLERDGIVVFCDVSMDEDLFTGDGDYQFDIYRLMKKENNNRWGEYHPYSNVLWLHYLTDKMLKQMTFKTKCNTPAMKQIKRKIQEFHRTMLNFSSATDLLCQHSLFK
T19 sequence (P16591 whole entry): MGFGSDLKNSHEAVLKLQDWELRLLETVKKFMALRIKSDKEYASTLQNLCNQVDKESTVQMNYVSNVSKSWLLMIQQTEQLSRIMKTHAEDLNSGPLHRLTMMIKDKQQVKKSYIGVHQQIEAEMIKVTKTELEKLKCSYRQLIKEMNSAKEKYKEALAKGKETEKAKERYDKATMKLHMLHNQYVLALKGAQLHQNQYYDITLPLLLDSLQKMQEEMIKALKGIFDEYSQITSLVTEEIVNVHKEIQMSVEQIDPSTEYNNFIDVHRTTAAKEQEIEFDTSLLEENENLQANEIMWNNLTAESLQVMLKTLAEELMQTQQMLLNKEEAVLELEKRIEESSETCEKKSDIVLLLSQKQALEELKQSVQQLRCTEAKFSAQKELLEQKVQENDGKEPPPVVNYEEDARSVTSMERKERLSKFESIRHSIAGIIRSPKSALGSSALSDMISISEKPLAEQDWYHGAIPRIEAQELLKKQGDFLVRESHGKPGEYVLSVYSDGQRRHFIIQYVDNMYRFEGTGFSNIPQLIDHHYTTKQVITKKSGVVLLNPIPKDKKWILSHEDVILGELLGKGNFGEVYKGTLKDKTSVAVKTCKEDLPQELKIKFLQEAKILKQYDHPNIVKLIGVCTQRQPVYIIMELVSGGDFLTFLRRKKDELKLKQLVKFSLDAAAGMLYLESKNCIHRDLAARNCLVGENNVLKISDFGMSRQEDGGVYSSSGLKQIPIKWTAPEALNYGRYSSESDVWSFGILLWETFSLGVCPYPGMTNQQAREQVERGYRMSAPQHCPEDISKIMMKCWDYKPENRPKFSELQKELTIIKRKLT
T31 sequence (P11309 whole entry): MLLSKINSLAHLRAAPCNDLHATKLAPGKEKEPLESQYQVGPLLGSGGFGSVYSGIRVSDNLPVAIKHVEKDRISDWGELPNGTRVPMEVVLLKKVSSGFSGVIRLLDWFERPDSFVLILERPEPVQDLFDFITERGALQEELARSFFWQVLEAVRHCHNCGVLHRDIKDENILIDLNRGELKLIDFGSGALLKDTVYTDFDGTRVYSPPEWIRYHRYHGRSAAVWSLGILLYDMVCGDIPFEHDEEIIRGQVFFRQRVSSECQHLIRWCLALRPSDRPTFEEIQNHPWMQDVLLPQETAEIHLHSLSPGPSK
T2 sequence (P32238 whole entry): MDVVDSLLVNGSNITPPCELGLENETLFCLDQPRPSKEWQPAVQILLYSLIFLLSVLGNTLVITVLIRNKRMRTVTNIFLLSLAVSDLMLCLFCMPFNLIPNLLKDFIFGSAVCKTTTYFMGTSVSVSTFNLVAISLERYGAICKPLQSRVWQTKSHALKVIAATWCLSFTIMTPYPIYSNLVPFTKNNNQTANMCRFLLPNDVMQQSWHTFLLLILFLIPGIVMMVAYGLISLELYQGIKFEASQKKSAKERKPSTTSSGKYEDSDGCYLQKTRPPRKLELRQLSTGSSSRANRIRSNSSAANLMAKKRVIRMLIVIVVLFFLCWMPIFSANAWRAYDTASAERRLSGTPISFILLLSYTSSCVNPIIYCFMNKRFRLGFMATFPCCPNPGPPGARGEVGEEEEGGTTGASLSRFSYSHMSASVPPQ
T40 sequence (P42680 whole entry): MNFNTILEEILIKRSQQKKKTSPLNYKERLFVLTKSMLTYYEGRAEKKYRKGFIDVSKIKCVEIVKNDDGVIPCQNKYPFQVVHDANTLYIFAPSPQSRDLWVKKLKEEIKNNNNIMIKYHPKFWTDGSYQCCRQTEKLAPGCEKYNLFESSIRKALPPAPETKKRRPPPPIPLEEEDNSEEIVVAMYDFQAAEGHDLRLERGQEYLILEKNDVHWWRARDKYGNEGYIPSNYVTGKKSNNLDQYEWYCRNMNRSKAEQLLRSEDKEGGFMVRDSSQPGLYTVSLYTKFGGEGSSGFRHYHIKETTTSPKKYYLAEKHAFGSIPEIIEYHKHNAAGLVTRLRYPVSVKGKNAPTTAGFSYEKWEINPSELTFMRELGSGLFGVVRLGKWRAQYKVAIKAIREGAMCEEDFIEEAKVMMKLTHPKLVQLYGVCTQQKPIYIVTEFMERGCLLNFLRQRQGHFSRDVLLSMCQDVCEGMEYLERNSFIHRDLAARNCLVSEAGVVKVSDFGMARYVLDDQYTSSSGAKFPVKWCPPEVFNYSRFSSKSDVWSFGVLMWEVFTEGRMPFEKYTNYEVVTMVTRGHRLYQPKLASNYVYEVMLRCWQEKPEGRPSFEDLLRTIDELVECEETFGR
T24 sequence (P10721 26-976): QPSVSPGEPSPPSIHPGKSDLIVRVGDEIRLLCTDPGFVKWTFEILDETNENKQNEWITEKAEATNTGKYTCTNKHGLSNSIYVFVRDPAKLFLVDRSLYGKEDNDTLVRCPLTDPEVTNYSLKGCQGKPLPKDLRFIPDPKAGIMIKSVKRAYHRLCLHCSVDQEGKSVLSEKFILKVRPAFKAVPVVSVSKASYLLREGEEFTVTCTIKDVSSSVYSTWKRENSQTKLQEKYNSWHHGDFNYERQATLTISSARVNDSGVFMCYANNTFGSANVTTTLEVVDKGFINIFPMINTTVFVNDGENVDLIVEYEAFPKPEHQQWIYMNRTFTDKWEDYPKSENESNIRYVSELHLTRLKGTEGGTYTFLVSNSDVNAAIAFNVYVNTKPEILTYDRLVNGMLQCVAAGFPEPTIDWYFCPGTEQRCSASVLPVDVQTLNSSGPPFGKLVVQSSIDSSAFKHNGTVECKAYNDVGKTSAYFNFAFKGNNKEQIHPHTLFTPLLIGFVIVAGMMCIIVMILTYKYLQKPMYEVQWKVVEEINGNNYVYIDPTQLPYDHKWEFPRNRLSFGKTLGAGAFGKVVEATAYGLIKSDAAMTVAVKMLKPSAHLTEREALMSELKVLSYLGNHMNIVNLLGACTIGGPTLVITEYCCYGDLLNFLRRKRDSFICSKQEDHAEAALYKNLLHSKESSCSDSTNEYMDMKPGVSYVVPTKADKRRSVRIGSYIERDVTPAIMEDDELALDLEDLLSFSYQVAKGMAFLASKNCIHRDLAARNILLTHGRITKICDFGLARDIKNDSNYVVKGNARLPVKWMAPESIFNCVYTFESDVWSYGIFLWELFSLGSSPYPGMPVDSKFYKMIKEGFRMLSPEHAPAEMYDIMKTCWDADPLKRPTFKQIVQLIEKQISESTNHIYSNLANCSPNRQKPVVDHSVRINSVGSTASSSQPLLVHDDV
T30 sequence (Q13177 whole entry): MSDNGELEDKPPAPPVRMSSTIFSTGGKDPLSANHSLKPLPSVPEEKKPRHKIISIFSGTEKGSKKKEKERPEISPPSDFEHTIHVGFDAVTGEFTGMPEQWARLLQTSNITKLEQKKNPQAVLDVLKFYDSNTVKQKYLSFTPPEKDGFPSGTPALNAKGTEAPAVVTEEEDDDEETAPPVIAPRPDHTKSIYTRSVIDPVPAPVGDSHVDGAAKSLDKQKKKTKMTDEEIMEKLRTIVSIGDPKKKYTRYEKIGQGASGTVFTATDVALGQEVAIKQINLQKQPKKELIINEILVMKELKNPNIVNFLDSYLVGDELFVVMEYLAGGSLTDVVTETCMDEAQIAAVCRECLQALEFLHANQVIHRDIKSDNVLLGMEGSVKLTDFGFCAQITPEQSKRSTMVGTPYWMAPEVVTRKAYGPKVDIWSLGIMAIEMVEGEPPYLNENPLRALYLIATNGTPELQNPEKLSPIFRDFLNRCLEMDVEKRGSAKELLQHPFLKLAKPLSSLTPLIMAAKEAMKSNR
T39 sequence (P42681 whole entry): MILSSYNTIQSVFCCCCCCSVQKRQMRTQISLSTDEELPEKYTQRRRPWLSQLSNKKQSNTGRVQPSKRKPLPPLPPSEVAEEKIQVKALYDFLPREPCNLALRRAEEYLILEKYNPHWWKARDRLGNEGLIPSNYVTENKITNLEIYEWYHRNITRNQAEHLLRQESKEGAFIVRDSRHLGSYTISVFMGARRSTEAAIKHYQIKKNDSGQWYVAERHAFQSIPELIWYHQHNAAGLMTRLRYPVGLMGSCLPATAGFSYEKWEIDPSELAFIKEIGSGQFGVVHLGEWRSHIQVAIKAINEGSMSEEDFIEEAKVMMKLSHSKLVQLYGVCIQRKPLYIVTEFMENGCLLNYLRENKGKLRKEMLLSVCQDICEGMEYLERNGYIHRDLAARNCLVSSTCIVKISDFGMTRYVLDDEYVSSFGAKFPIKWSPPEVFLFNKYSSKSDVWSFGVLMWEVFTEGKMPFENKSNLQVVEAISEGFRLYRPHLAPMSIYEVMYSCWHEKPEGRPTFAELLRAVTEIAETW

Cn1cc(-c2ccc(-c3cncc(Cl)c3N3CCC4(CCNC4=O)CC3)cc2)cn1 [Compound 74, 8-(3-Chloro-5-(4-(1-methyl-1H-pyrazol-4-yl)phenyl)pyridin-4-yl)-2,8-diazaspiro[4.5]decan-1-one]
inhibition at 10 µM [1]: 8%
inhibition at 10 µM [2]: 2%
inhibition at 10 µM [3]: 16%
inhibition at 10 µM [4]: 4%
% Inhibition of Control Specific Binding [5]: 22%
% Inhibition of Control Specific Binding [6]: 72%
inhibition at 10 µM [7]: 19%
inhibition at 10 µM [8]: 3%
% Inhibition of Control Specific Binding [9]: 7%
% Inhibition of Control Specific Binding [10]: -13%
inhibition at 10 µM [11]: 70%
remaining activity at 1 µM [12]: -5%
% Control [13]: 0% and 6%
remaining activity at 1 µM [14]: -3%
remaining activity at 1 µM [15]: 6%
remaining activity at 1 µM [16]: -8%
remaining activity at 1 µM [17]: -21%
remaining activity at 1 µM [18]: 0%
remaining activity at 1 µM [19]: 9%
remaining activity at 1 µM [20]: 6%
remaining activity at 1 µM [21]: 6%
remaining activity at 1 µM [22]: 11%
remaining activity at 1 µM [23]: 0%
remaining activity at 1 µM [24]: -9%
remaining activity at 1 µM [25]: 0%
remaining activity at 1 µM [26]: 5%
remaining activity at 1 µM [27]: 13%
remaining activity at 1 µM [28]: 11%
remaining activity at 1 µM [29]: -12%
remaining activity at 1 µM [30]: -6%
remaining activity at 1 µM [31]: -2%
remaining activity at 1 µM [32]: 6%
remaining activity at 1 µM [33]: -7%
remaining activity at 1 µM [34]: -11%
remaining activity at 1 µM [35]: 0%
remaining activity at 1 µM [36]: 2%
remaining activity at 1 µM [37]: 1%
remaining activity at 1 µM [38]: -4%
remaining activity at 1 µM [39]: 6%
remaining activity at 1 µM [40]: -5%
remaining activity at 1 µM [41]: -11%
remaining activity at 1 µM [42]: -2%
remaining activity at 1 µM [43]: 14%
remaining activity at 1 µM [44]: -4%
